The results in this text go back to patent publication US20210205291A1, “NITROGENOUS HETEROCYCLIC AMIDE DERIVATIVE, PREPARATION METHOD THEREOF, AND PHARMACEUTICAL APPLICATION” (Sichuan Haisco Pharmaceutical Co., Ltd., priority 2016, published 2021).

pEC50, pIC50: −log10 of the molar value.

For experiment [1], the target named is human muscarine receptor M3 (Homo sapiens, UniProt P20309). Kind of experiment: Inhibitory activity against human muscarine receptor M3 (aequorin luminescence in CHO cells, acetylcholine challenge). The format is cell-based. The conditions noted are these: CHO cells expressing hM3 and apo-Aequorin; acetylcholine chloride 112.92 nM. Here is the method: CHO cells (PerkinElmer, ES-212-AF) that stably express human muscarine receptor 3 (hM3) and apo-Aequorin were cultured at 37° C. 5% CO2 in Ham's F12 media (Invitrogen 12500-062) containing 10% fetal bovine serum (FBS) (Gibico 10099-141), 400 μg/mL G418 (sigma G5013) and 250 μg/mL Zeocin (Invivogen ant-zn-5p), until a confluency of 90% to 100% was reached. Cells were separated by rinsing with PBS/5 mM EDTA, collected by centrifugation, re-suspended in phenol red-free Ham's F12 media (Invitrogen 12500-062) containing 0.1% BSA (BOVOGEN BSAS 100), and counted. The cell concentration was adjusted to 1×10^6 cells/ml. 15 ml of the cell suspension was added to a 50-ml centrifuge tube, to which Coelenterazine-h (Promega S2011) was added to a final concentration of 5 μM. The tube was wrapped with a tin foil to shade light, and incubated on a rotary shaker at 20° C. for 4 hours. The cells were diluted with a phenol red-free/0.1% BSA Ham's F12 medium to a final concentration of 5.0/10^5 cells/ml, placed on a rotary shaker in low-speed rotation, and incubated at room temperature for at least 1 hour. The compounds of the Examples were formulated with DMSO into 10 mM stock solutions, diluted in series with a phenol red-free/0.1% BSAHam's F12 medium (log(M): −7, −8, −9, −10, −11), and added to a 96-well plate at 50 μl/well. 50 μl cell suspension was further added to each well (25,000 cells/well) and incubated for 15 min at room temperature. The 96-well plate was placed under a microplate reader (Perkin Elmer, Envision), and a 50 μl solution of acetylcholine chloride (Sigma A6625) was added to each well at a concentration of 112.92 nM (hM3) with a microplate reader sample injector. The luminescence was recorded over 20 seconds, and IC50 values were calculated and analyzed by Origin 7.5.

Experiment [2] has as its target human β2-adrenergic receptor (Homo sapiens, UniProt P07550). Nature of the experiment: Agonistic activity on human β2-adrenergic receptor (LANCE Ultra cAMP Assay in CHO cells). The format is cell-based. The conditions noted are these: CHO cells expressing hβ2; cAMP TR-FRET. Here is the method: The agonistic activity of the compounds of the Examples on the human adrenergic receptor was measured by the LANCE Ultra cAMP Assay.
CHO cells (PerkinElmer, ES-034-AF) that stably express human adrenergic receptor (hβ2) were cultured at 37° C. 5% CO2 in MEM-alpha media (Invitrogen 12561-056) containing 10% fetal bovine serum (FBS) (Gibico 10099-141) and 250 μg/ml Zeocin (InvivoGen ant-zn-5p), until a confluency of 90% to 100% was reached. Then the agonism on cAMP was tested by using a LANCE Ultra cAMP Assay kit (PerkinElmer TRF0263). Cells were separated with PBS/5 mM EDTA, collected by centrifugation, re-suspended in Stimulation Buffer (1×HBSS, 5 mM HEPES, 0.5 mM IBMX, 0.1% BSA, pH=7.4), and adjusted to a cell concentration of 6×10^5 cells/ml. The compounds of the Examples were formulated with DMSO into 10 mM stock solutions, diluted in series with Stimulation Buffer, and added to a 384-well plate at 5 μl/well. 5 μl cell suspension was further added to each well (3,000 cells/well), incubated for 30 min at room temperature, then 5 μl of a 4×Eu-cAMP trace working solution was added to each well, and then 5 μl of a 4×Ulight-anti-cAMP working solution was added to each well, followed by incubation at room temperature for 1 hour. The 384-well plate was detected for TR-FRET under a microplate reader (Perkin Elmer, Envision), and EC50 values were calculated and analyzed by Origin 7.5.

Experiment [3] concerns methacholine-induced bronchoconstriction in guinea pigs. Nature of the experiment: Inhibition against methacholine-induced bronchoconstriction in guinea pigs (PenH, whole-body plethysmograph). The experiment is classed as in vivo. The conditions noted are these: intratracheal, 0.3 nmol per animal, 3 mg/ml methacholine; for PenH Inhibition (%) 4 h: 4 h after administration; for PenH Inhibition (%) 24 h: 24 h after administration. On the procedure: 8-week-old guinea pigs (all male) were purchased from Vital River Laboratory Animal Technology Co., Ltd., and adapted for 3 days before the experiments were started. The test compounds were formulated into 0.6 mM stock solutions with 83% dry ethanol+17% Tween80, which were diluted 500 times before administration. Before administration, the animals were anesthetized with 5% isoflurane by using a small-animal anesthetic apparatus (Matrx: VME2), wherein the anesthetic duration was 1.5 to 2 min. The anesthetized guinea pigs were fixed on a tracheal cannula platform, and intratracheally administrated with the compounds at 250 μl/animal by using a rat liquid-aerosol administration kit (penn-century; MSA-250-R). 4 hours and 24 hours after administration, the enhanced pauses (PenH) of the guinea pigs were measured in a whole-body plethysmograph (DSI; GS220A12-R7B). 3 mg/ml methacholine (Mch) was administrated by nebulization for 36 sec, and data was recorded over 7 min. The average of PenH was calculated (see J Pharmacol Exp Ther 345:260-270).
PenH calculation formula: PenH=PEP/PIP*Pause; Pause=(Te−Tr)/Tr
Te: Duration of expiratory phase (s)
Tr: Duration of relaxation phase (s)
PEP: Expiratory peak flow rate (ml/s)
PIP: Inspiratory peak flow rate (ml/s)

Chain of human muscarine receptor M3 (P20309 whole entry): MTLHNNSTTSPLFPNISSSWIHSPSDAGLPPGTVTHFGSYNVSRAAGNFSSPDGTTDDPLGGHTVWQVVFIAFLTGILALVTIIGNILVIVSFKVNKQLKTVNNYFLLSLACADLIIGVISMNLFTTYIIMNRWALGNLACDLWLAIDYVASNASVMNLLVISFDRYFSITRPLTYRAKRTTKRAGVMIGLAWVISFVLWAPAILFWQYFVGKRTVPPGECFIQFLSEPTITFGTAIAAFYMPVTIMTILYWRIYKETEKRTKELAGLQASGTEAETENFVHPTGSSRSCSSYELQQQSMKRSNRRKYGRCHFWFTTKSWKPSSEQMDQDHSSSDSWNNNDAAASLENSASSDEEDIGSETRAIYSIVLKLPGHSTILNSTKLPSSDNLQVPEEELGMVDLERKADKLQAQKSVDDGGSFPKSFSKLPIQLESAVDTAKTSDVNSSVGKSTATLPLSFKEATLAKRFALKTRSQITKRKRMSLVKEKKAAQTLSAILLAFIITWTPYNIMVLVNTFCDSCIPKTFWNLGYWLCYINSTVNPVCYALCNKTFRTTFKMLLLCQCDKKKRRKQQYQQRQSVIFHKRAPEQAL
Chain of human β2-adrenergic receptor (P07550 whole entry): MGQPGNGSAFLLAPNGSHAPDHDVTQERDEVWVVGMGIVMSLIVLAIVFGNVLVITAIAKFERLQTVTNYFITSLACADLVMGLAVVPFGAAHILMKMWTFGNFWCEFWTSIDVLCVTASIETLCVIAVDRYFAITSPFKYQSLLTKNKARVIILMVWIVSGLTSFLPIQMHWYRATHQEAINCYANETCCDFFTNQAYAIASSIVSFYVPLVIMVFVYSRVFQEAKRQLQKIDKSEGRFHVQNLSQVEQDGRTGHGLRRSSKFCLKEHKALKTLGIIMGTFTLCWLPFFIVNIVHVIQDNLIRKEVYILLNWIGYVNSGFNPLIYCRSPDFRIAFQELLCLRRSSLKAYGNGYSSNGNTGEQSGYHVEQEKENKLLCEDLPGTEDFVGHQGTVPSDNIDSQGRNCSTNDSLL

In experiment [1], `O=C(Nc1ccccc1-c1ccccc1)OC1CCN(CCC(=O)N2CCC(C(=O)Nc3ccc(CNC[C@H](O)c4ccc(O)c5[nH]c(=O)ccc45)cc3)CC2)CC1` [Compound 1, [1-[3-[4-[[4-[[[(2R)-2-hydroxy-2-(8-hydroxy-2-oxo-1H-quinolin-5-yl)ethyl]amino]methyl]phenyl]carbamoyl]-1-piperidyl]-3-oxo-propyl]-4-piperidyl]N-(2-phenylphenyl)carbamate; ditrifluoroacetic acid] showed a pIC50 of 7.84.
The compound `COc1cc(NC(=O)OCC2CCN(C(=O)CCN3CCC(OC(=O)Nc4ccccc4-c4ccccc4)CC3)CC2)c(Cl)cc1CNC[C@H](O)c1ccc(O)c2[nH]c(=O)ccc12` [Compound 3, [1-[3-[4-[(2-phenylphenyl)carbamoyloxy]-1-piperidyl]propanoyl]-4-piperidyl]methyl N-[2-chloro-4-[[[(2R)-2-hydroxy-2-(8-hydroxy-2-oxo-1H-quinolin-5-yl)ethyl]amino]methyl]-5-methoxy-phenyl]carbamate; di(2,2,2-trifluoroacetic acid)] gave a pEC50 in experiment [2] of 7.99. Further, the pIC50 in experiment [1] was 8.42.
Regarding `COc1cc(NC(=O)OC[C@@H]2CCN(C(=O)CCN3CCC(OC(=O)Nc4ccccc4-c4ccccc4)CC3)C2)c(Cl)cc1CNC[C@H](O)c1ccc(O)c2[nH]c(=O)ccc12` [Compound 4, [(3R)-1-[3-[4-[(2-phenylphenyl)carbamoyloxy]-1-piperidyl]propanoyl]pyrrolidin-3-yl]methyl N-[2-chloro-4-[[[(2R)-2-hydroxy-2-(8-hydroxy-2-oxo-1H-quinolin-5-yl)ethyl]amino]methyl]-5-methoxy-phenyl]carbamate; di(2,2,2-trifluoro)acetic acid], in experiment [1], the pIC50 is 8.65.
Turning to `COc1cc(NC(=O)OC[C@H]2CCN(C(=O)CCN3CCC(OC(=O)Nc4ccccc4-c4ccccc4)CC3)C2)c(Cl)cc1CNC[C@H](O)c1ccc(O)c2[nH]c(=O)ccc12` [Compound 5, [(3S)-1-[3-[4-[(2-phenylphenyl)carbamoyloxy]-1-piperidyl]propanoyl]pyrrolidin-3-yl]methyl N-[2-chloro-4-[[[(2R)-2-hydroxy-2-(8-hydroxy-2-oxo-1H-quinolin-5-yl)ethyl]amino]methyl]-5-methoxy-phenyl]carbamate; ditrifluoroacetic acid], in experiment [3], the “PenH Inhibition (%) 4 h” value is reported as 96.4% and the “PenH Inhibition (%) 24 h” value was found to be 78.6%. In experiment [1], this compound gave a negative logarithm of the IC50 (pIC50) of 9.05.
`CN(CCNC[C@H](O)c1ccc(O)c2[nH]c(=O)ccc12)C(=O)C1CCN(C(=O)CCN2CCC(OC(=O)Nc3ccccc3-c3ccccc3)CC2)CC1` [Compound 6, [1-[3-[4-[2-[[(2R)-2-hydroxy-2-(8-hydroxy-2-oxo-1H-quinolin-5-yl)ethyl]amino]ethyl-methyl-carbamoyl]-1-piperidyl]-3-oxo-propyl]-4-piperidyl]N-(2-phenylphenyl)carba mate; ditrifluoroacetic acid] had a pEC50 in experiment [2] of 7.76. In experiment [1], this compound gave a negative logarithm of the IC50 (pIC50) of 8.19.
In experiment [2], `O=C(Nc1ccc(CNC[C@H](O)c2ccc(O)c3[nH]c(=O)ccc23)cc1F)OCC1CCN(C(=O)CCN2CCC(OC(=O)Nc3ccccc3-c3ccccc3)CC2)CC1` [Compound 7, [1-[3-[4-[(2-phenylphenyl)carbamoyloxy]-1-piperidyl]propanoyl]-4-piperidyl]methyl N-[2-fluoro-4-[[[(2R)-2-hydroxy-2-(8-hydroxy-2-oxo-1H-quinolin-5-yl)ethyl]amino]methyl]phenyl]carbamate; ditrifluoroacetic acid] gave a negative logarithm of the EC50 (pEC50) of 8.22. In addition, in experiment [3], the “PenH Inhibition (%) 4 h” value was 72.1% and the “PenH Inhibition (%) 24 h” value was 55.8%. In addition, in experiment [1], the pIC50 is 8.88.
In experiment [2], `O=C(Nc1ccc(CNC[C@H](O)c2ccc(O)c3[nH]c(=O)ccc23)c(F)c1)OCC1CCN(C(=O)CCN2CCC(OC(=O)Nc3ccccc3-c3ccccc3)CC2)CC1` [Compound 8, [1-[3-[4-[(2-phenylphenyl)carbamoyloxy]-1-piperidyl]propanoyl]-4-piperidyl]methyl N-[3-fluoro-4-[[[(2R)-2-hydroxy-2-(8-hydroxy-2-oxo-1H-quinolin-5-yl)ethyl]amino]methyl]phenyl]carbamate; ditrifluoroacetic acid] showed a negative logarithm of the EC50 (pEC50) of 8.48. Moreover, in experiment [3], the “PenH Inhibition (%) 4 h” value worked out at 78.2% and the “PenH Inhibition (%) 24 h” value is 45.3%. For the same compound, the negative-log IC50 (pIC50) in experiment [1] was 8.48.
In turn, `O=C(CC1CCN(C(=O)CCN2CCC(OC(=O)Nc3ccccc3-c3ccccc3)CC2)CC1)Nc1ccc(CNC[C@H](O)c2ccc(O)c3[nH]c(=O)ccc23)cc1` [Compound 9, [1-[3-[4-[2-[4-[[[(2R)-2-hydroxy-2-(8-hydroxy-2-oxo-1H-quinolin-5-yl)ethyl]amino]methyl]anilino]-2-oxo-ethyl]-1-piperidyl]-3-oxo-propyl]-4-piperidyl]N-(2-phenylphenyl)carbamate; di(trifluoroacetic acid)] showed a negative-log EC50 (pEC50) in experiment [2] of 8.40. The compound further gave a pIC50 in experiment [1] of 8.43.
